According to the supplement of paper PMC11061612:

Legend:
[1] = compound: Cn1cnc2c(F)c(Nc3ccc(Br)cc3Cl)c(C(=O)NOCCO)cc21 [Selumetinib]; details: max 10 µM
How it was run: (§1)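 Plates with 1536 wells received cancer cell lines in 7.5 μl of DMEM/F12 or RPMI containing 10% FBS. After 24 hours at 37°C and 5% CO2, cells were dosed for 72 hours with final DMSO typically 0.2%, and viability was read by CellTiter-Glo 2.0 luminescence scaled between blank-well and DMSO-well means. The single-agent IC50 was taken from a logistic fit of the dose responses made with a non-linear mixed effects model, that logistic curve having two parameters.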

[2] = compound: C[C@@H](c1ccc2nccn2c1)n1nnc2ncc(-c3cnn(C)c3)nc21 [Savolitinib]; details: max 1 µM
How it was run: as §1

[3] = compound: C[C@@H](Oc1cc(-c2cnn(C3CCNCC3)c2)cnc1N)c1c(Cl)ccc(F)c1Cl [Crizotinib]; details: max 10 µM
How it was run: as §1

[4] = compound: Cc1nc(-c2cn3c(n2)-c2ccc(-c4cnn(C(C)(C)C(N)=O)c4)cc2OCC3)n(C(C)C)n1 [Taselisib]; details: max 10 µM
How it was run: as §1

[5] = compound: CC1=C(C(=CC=C1)Cl)NC(=O)C2=CN=C(S2)NC3=CC(=NC(=N3)C)N4CCN(CC4)CCO [Dasatinib]; details: max 2 µM
How it was run: as §1

[6] = compound: CC1=CN2[C@@H](C1)C=NC3=CC(=C(C=C3C2=O)OC)OCCCCCOC4=C(C=C5C(=C4)N=C[C@@H]6CC(=CN6C5=O)C)OC [SG3199]; details: max 0.001 µM
How it was run: as §1

[7] = compound: N#Cc1cnc(Nc2cc(NC[C@H]3CNCCO3)c(C(F)(F)F)cn2)cn1 [SRA737]; details: max 10 µM
How it was run: as §1

[8] = compound: O=C(c1cc(Cc2n[nH]c(=O)c3ccccc23)ccc1F)N1CCN(C(=O)C2CC2)CC1 [Olaparib]; details: max 10 µM
How it was run: as §1

[9] = compound: O=c1[nH]cc(F)c(=O)[nH]1 [5-Fluorouracil]; details: max 20 µM
How it was run: as §1

[10] = compound: COc1cccc(OCCCN)c1-c1cc(Nc2cnc(C#N)cn2)n[nH]1 [Prexasertib]; details: max 1 µM
How it was run: as §1

[11] = compound: C1CN(CCC1(C(=O)N[C@@H](CCO)C2=CC=C(C=C2)Cl)N)C3=NC=NC4=C3C=CN4 [AZD5363]; details: max 10 µM
How it was run: as §1

[12] = compound: CCN(CCO)CCCOc1ccc2c(Nc3cc(CC(=O)Nc4cccc(F)c4)[nH]n3)ncnc2c1 [AZD2811]; details: max 1 µM
How it was run: as §1

[13] = compound: COc1cc([C@@H]2c3cc4c(cc3[C@@H](O[C@@H]3O[C@@H]5CO[C@@H](C)O[C@H]5[C@H](O)[C@H]3O)[C@H]3COC(=O)[C@H]23)OCO4)cc(OC)c1O [Etoposide]; details: max 10 µM
How it was run: as §1

[14] = compound: CC(=O)c1c(C)c2cnc(Nc3ccc(N4CCNCC4)cn3)nc2n(C2CCCC2)c1=O [Palbociclib]; details: max 10 µM
How it was run: as §1

[15] = compound: CC(=O)Nc1cccc(-n2c(=O)n(C3CC3)c(=O)c3c(Nc4ccc(I)cc4F)n(C)c(=O)c(C)c32)c1 [Trametinib]; details: max 1 µM
How it was run: as §1

[16] = compound: COc1cccc2c1C(=O)c1c(O)c3c(c(O)c1C2=O)C[C@@](O)(C(=O)CO)C[C@@H]3O[C@H]1C[C@H](N)[C@H](O)[C@H](C)O1 [Doxorubicin]; details: max 1 µM
How it was run: as §1

[17] = compound: NC1(c2ccc(-c3nc4ccn5c(=O)[nH]nc5c4cc3-c3ccccc3)cc2)CCC1 [MK-2206]; details: max 10 µM
How it was run: as §1

[18] = compound: C[C@@H]1COCCN1C2=NC(=NC(=C2)C3(CC3)[S@](=N)(=O)C)C4=C5C=CNC5=NC=C4 [AZD6738]; details: max 10 µM
How it was run: as §1

[19] = compound: COc1cc2ncnc(Nc3ccc(F)c(Cl)c3)c2cc1OCCCN1CCOCC1 [Gefitinib]; details: max 10 µM
How it was run: as §1

[20] = compound: COc1cc(Nc2ncc3c(n2)-c2ccc(Cl)cc2C(c2c(F)cccc2OC)=NC3)ccc1C(=O)O [Alisertib]; details: max 10 µM
How it was run: as §1

[21] = compound: C[C@@H](Nc1cc(F)cc(F)c1)c1cc(C(=O)N(C)C)cc2c(=O)cc(N3CCOCC3)oc12 [AZD8186]; details: max 10 µM
How it was run: as §1

[22] = compound: CS(=O)(=O)CCNCc1ccc(-c2ccc3ncnc(Nc4ccc(OCc5cccc(F)c5)c(Cl)c4)c3c2)o1 [Lapatinib]; details: max 10 µM
How it was run: as §1

[23] = compound: COc1nnc2ccc(N3CCC(c4ccc(OCCN5CCN(C)C(=O)[C@H]5C)cc4)CC3)nn12 [AZD5153]; details: max 1 µM
How it was run: as §1

[24] = compound: C=CCn1c(=O)c2cnc(Nc3ccc(N4CCN(C)CC4)cc3)nc2n1-c1cccc(C(C)(C)O)n1 [AZD1775]; details: max 3 µM
How it was run: as §1

[25] = compound: C1CC(C1)(C(=O)[O-])C(=O)[O-].N.N.[Pt+2] [Carboplatin]; details: max 10 µM
How it was run: as §1

[26] = compound: CN(C)CCCOc1ccc(-c2ccc3ncc4c(c3c2)n(C2CCOCC2)c(=O)n4C)cn1 [AZD0156]; details: max 3 µM
How it was run: as §1

[27] = compound: Cc1cc2ncnn2cc1Nc1ncc2c(n1)n(C1CCOCC1)c(=O)n2C [AZD7648]; details: max 10 µM
How it was run: as §1

[28] = compound: Cc1c2c(nn1C)CSCc1cc(n(C)n1)CSc1cc(c3ccccc3c1)OCCCc1c(C(=O)O)n(C)c3c-2c(Cl)ccc13 [AZD5991]; details: max 1 µM
How it was run: as §1

[29] = compound: CN(CC[C@H](CSC1=CC=CC=C1)NC2=C(C=C(C=C2)S(=O)(=O)NC(=O)C3=CC=C(C=C3)N4CCC(CC4)[C@H](C5=CC=CC=C5C6=CC=C(C=C6)Cl)O)S(=O)(=O)C(F)(F)F)CCO [AZD4320]; details: max 1 µM
How it was run: as §1

[30] = compound: Nc1ccn([C@@H]2O[C@H](CO)[C@@H](O)C2(F)F)c(=O)n1 [Gemcitabine]; details: max 0.3 µM
How it was run: as §1

[31] = compound: O=C(Nc1ccc2[nH]nc(-c3ccncc3)c2c1)[C@@H]1CCN(CC(=O)N2CCN(c3ccc(-c4ncccn4)cc3)CC2)C1; details: max 5 µM
How it was run: as §1

[32] = compound: CC(=O)O[C@H]1C(=O)[C@@]2(C)[C@H]([C@H](OC(=O)c3ccccc3)[C@]3(O)C[C@H](OC(=O)[C@H](O)[C@@H](NC(=O)c4ccccc4)c4ccccc4)C(C)=C1C3(C)C)[C@]1(OC(C)=O)CO[C@@H]1C[C@@H]2O [Paclitaxel]; details: max 3 µM
How it was run: as §1

[33] = compound: CC1(C)CCC(CN2CCN(c3ccc(C(=O)NS(=O)(=O)c4ccc(NCC5CCOCC5)c([N+](=O)[O-])c4)c(Oc4cnc5[nH]ccc5c4)c3)CC2)=C(c2ccc(Cl)cc2)C1 [Venetoclax]; details: max 1 µM
How it was run: as §1

[34] = compound: CCc1c2c(nc3ccc(O)cc13)-c1cc3c(c(=O)n1C2)COC(=O)[C@]3(O)CC [SN-38]; details: max 0.3 µM
How it was run: as §1

[35] = compound: CC(C)n1c(=O)n(C)c2cnc3cc(F)c(-c4ccc(OCCCN5CCCCC5)nc4)cc3c21 [AZD1390]; details: max 0.3 µM
How it was run: as §1

Cell Line	IC50, cell viability 72 h [1]	IC50, cell viability 72 h [2]	IC50, cell viability 72 h [3]	IC50, cell viability 72 h [4]	IC50, cell viability 72 h [5]	IC50, cell viability 72 h [6]	IC50, cell viability 72 h [7]	IC50, cell viability 72 h [8]	IC50, cell viability 72 h [9]	IC50, cell viability 72 h [10]	IC50, cell viability 72 h [11]	IC50, cell viability 72 h [12]	IC50, cell viability 72 h [13]	IC50, cell viability 72 h [14]	IC50, cell viability 72 h [15]	IC50, cell viability 72 h [16]	IC50, cell viability 72 h [17]	IC50, cell viability 72 h [18]	IC50, cell viability 72 h [19]	IC50, cell viability 72 h [20]	IC50, cell viability 72 h [21]	IC50, cell viability 72 h [22]	IC50, cell viability 72 h [23]	IC50, cell viability 72 h [24]	IC50, cell viability 72 h [25]	IC50, cell viability 72 h [26]	IC50, cell viability 72 h [27]	IC50, cell viability 72 h [28]	IC50, cell viability 72 h [29]	IC50, cell viability 72 h [30]	IC50, cell viability 72 h [31]	IC50, cell viability 72 h [32]	IC50, cell viability 72 h [33]	IC50, cell viability 72 h [34]	IC50, cell viability 72 h [35]
KURAMOCHI (Ovarian Carcinoma)	> 10 µM	> 1 µM	> 10 µM	> 10 µM	0.1 µM	> 0.001 µM	4.48 µM	> 10 µM	> 20 µM	0.0528 µM	> 10 µM	> 1 µM	> 10 µM	> 10 µM	> 1 µM	> 1 µM	> 10 µM	6.97 µM	> 10 µM	> 10 µM	> 10 µM	> 10 µM	0.14 µM	2.44 µM	> 10 µM	> 3 µM	> 10 µM	> 1 µM	> 1 µM	> 0.3 µM	> 5 µM	1.67 µM	> 1 µM	0.171 µM	> 0.3 µM
LB831-BLC (Bladder Carcinoma)	> 10 µM	> 1 µM	> 10 µM	5.82 µM	> 2 µM	> 0.001 µM	> 10 µM	> 10 µM	> 20 µM	> 1 µM	> 10 µM	> 1 µM	> 10 µM	> 10 µM	> 1 µM	0.821 µM	> 10 µM	> 10 µM	> 10 µM	> 10 µM	> 10 µM	> 10 µM	> 1 µM	2.14 µM	> 10 µM	> 3 µM	> 10 µM	> 1 µM	> 1 µM	0.202 µM	> 5 µM	0.0691 µM	> 1 µM	0.0458 µM	> 0.3 µM
LS-180 (Colorectal Carcinoma)	2.68 µM	> 1 µM	> 10 µM	2.16 µM	> 2 µM	> 0.001 µM	> 10 µM	> 10 µM	> 20 µM	0.103 µM	> 10 µM	> 1 µM	1.92 µM	9.72 µM	0.0744 µM	0.168 µM	> 10 µM	3.42 µM	> 10 µM	7.41 µM	> 10 µM	> 10 µM	0.673 µM	2.03 µM	> 10 µM	> 3 µM	> 10 µM	> 1 µM	> 1 µM	0.0118 µM	2.85 µM	0.0305 µM	> 1 µM	0.0211 µM	> 0.3 µM
